Measurements reported in ChEMBL document CHEMBL1145802, “Dual probes for the dopamine transporter and sigma1 receptors: novel piperazinyl alkyl-bis(4'-fluorophenyl)amine analogues as potential cocaine-abuse therapeutic agents” (J Med Chem, 2003).

Tests used:
[1] = target: Monoamine transporters; Norepininephrine & dopamine (Rattus norvegicus) (UniProt P23977+Q9WTR4); assay: Ratio of binding affinities for dopamine and norepinephrine transporters; type: protein assay
[2] = target: Monoamine transporters; serotonin & dopamine (Rattus norvegicus) (UniProt P31652+P23977); assay: Ratio for the binding affinities of dopamine transporter over serotonin transporter; type: protein assay
[3] = species: Cavia porcellus; assay: Ratio of binding affinities for dopamine transporter over sigma-1 receptor
[4] = target: Sodium-dependent dopamine transporter (Rattus norvegicus, UniProt P23977); assay: Binding affinity against dopamine transporter was determined by the displacement of [3H]WIN-35428 radioligand in rat brain; type: tissue-based
[5] = target: Norepinephrine transporter (Rattus norvegicus, UniProt Q9WTR4); assay: Displacement of [3H]nisoxetine from rat brain norepinephrine transporter; type: tissue-based
[6] = target: Sodium-dependent serotonin transporter (Rattus norvegicus, UniProt P31652); assay: Binding affinity against serotonin transporter by displacement of [3H]citalopram in rat brain; type: tissue-based
[7] = target: Sigma 2 receptor; assay: Binding affinity against Sigma receptor type 2 was determined by the displacement of [3H]DTG/dextrallorphan radioligand; design: species or system Rattus norvegicus

Chain of Norepinephrine transporter (Q9WTR4 whole entry): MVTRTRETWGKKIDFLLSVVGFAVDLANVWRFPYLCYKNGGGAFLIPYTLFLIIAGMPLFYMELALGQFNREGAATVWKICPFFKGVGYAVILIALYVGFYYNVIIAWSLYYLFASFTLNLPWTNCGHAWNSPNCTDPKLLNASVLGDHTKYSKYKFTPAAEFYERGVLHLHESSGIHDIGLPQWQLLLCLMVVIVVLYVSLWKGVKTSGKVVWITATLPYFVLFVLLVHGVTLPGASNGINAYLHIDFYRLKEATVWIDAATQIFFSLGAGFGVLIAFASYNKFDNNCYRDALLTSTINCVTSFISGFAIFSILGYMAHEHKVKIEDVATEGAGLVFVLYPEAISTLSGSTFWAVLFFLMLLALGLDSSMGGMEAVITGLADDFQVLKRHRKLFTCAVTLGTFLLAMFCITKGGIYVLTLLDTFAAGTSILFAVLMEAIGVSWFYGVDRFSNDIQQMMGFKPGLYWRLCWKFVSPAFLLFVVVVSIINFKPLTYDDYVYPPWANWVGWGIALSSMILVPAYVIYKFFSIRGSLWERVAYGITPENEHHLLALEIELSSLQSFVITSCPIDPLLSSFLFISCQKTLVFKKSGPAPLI
Chain of Sodium-dependent dopamine transporter (P23977 whole entry): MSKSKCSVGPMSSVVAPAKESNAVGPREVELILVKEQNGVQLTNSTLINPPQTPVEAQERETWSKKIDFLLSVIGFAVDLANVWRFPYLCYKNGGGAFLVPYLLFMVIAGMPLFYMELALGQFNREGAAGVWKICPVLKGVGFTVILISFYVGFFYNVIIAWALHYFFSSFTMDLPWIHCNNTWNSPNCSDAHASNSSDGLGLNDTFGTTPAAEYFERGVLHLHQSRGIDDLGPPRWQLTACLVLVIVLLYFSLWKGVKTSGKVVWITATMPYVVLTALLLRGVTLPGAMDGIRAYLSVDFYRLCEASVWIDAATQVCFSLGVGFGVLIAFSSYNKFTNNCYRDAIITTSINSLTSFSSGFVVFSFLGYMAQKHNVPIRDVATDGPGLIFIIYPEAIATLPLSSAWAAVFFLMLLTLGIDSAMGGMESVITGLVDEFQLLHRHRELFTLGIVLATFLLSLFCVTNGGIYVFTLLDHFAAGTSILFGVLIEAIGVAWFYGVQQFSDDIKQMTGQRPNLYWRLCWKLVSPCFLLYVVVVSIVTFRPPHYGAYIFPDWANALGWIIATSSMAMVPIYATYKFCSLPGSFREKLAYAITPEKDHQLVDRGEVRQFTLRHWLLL
Chain of Monoamine transporters; serotonin & dopamine (Rattus norvegicus) (P23977 whole entry, looked up): as the sequence (P23977 whole entry) above
Chain of Monoamine transporters; serotonin & dopamine (Rattus norvegicus) (P31652 whole entry, looked up): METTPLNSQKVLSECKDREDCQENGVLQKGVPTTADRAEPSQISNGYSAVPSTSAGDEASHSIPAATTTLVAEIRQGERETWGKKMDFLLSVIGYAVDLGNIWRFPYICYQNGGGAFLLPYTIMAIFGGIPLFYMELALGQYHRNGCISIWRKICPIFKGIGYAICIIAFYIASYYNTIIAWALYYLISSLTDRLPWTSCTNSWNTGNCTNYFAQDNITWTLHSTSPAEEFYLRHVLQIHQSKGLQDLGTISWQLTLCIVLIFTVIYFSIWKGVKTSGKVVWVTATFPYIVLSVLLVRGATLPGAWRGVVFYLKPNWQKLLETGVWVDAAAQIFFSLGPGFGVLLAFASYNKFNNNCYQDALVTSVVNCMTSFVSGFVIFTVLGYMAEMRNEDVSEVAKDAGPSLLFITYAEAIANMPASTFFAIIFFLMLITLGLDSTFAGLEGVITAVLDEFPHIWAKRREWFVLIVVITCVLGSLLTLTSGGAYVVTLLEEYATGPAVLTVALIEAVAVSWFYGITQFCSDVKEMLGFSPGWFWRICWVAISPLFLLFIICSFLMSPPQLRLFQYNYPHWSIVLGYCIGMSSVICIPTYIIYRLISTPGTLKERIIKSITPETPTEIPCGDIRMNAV
Chain of Sodium-dependent serotonin transporter (P31652 whole entry): as the sequence (P31652 whole entry, looked up) above

SMILES | Ratio [1] | Ratio [2] | Ratio [3] | Ki [4] [nM] | Ki [5] [nM] | Ki [6] [nM] | Ki [7] [nM]
C[C@@H]1CN(CCCN(c2ccccc2)c2ccccc2)C[C@@H](C)N1CCCc1ccccc1 | 60 | 20 | 1.6 | – | – | – | –
CCN(CC)CCOC(=O)C1(c2ccccc2)CCCC1 | – | – | – | 5180 | – | – | –
Fc1ccc(N(CCCN2CCN(CCCc3ccccc3)CC2)c2ccc(F)cc2)cc1 | 38 | 67 | 3.7 | 18.1 | 682 | 1210 | –
Fc1ccc(N(CCCN2CCNCC2)c2ccc(F)cc2)cc1 | 7 | 2 | 23 | 60.8 | 396 | 133 | 385
C[C@@H]1CN(CCCn2c3ccccc3c3ccccc32)C[C@@H](C)N1C | – | – | 1.3 | 436 | – | – | –
C[C@@H]1CN(CCCn2c3ccccc3c3cc(N)ccc32)C[C@@H](C)N1 | – | – | 2.4 | 2400 | – | – | –
Fc1ccc(N(CCCN2CCN(Cc3ccccc3)CC2)c2ccc(F)cc2)cc1 | 190 | 140 | 0.5 | 27.6 | 5210 | 3730 | 78.1
C[C@@H]1CN(CCCN(c2ccccc2)c2ccccc2)C[C@@H](C)N1CCc1ccc(Cl)c(Cl)c1 | > 110 | 18 | 0.1 | 272 | – | – | 216
CCCN1CCC[C@@H](c2cccc(O)c2)C1 [PRECLAMOL] | – | – | – | 3270 | – | – | –
C[C@@H]1CN(CCCn2c3ccccc3c3ccccc32)C[C@@H](C)N1CCCc1ccccc1 | – | – | 0.4 | 263 | – | – | –
C[C@@H]1CN(CCCN(c2ccc(F)cc2)c2ccc(F)cc2)C[C@@H](C)N1 | 219 | 170 | 1.6 | 77.1 | – | – | –
OC(CCN1CCN(CCCN(c2ccc(F)cc2)c2ccc(F)cc2)CC1)c1ccccc1 (configuration not stated) | – | – | – | 8.5 | – | 803 | –
C[C@@H]1CN(CCCN(c2ccc(F)cc2)c2ccc(F)cc2)C[C@@H](C)N1CCCc1ccccc1 | 45 | 94 | 0.5 | 22.8 | – | – | 18.6
C[C@@H]1CN(CCCn2c3ccc([N+](=O)[O-])cc3c3cc([N+](=O)[O-])ccc32)C[C@@H](C)N1 | – | – | – | 174000 | – | – | –
C[C@@H]1CN(CCCn2c3ccccc3c3cc([N+](=O)[O-])ccc32)C[C@@H](C)N1 | – | – | 5.5 | 109 | – | – | –
C[C@@H]1CN(CCCN(c2ccccc2)c2ccccc2)C[C@@H](C)N1 | 8 | 87 | 0.2 | – | – | – | –
C[C@@H]1CN(CCCN(c2ccc(F)cc2)c2ccc(F)cc2)C[C@@H](C)N1CCc1ccc(Cl)c(Cl)c1 | – | – | – | 180 | – | 4350 | –
C[C@@H]1CN(CCCn2c3ccc(Br)cc3c3cc(Br)ccc32)C[C@@H](C)N1 | – | – | 1.1 | 3890 | – | – | –
